Measured values published in PMC7395068, “The evolution of strategies to minimise the risk of human drug-induced liver injury (DILI) in drug discovery and development” (Archives of Toxicology, 2020).

What was measured:
[1] = Total human plasma exposure Cmax.tot; type: in vivo; settings: across literature references
HepaRG cells = settings: HepaRG cells, BMCs in relation to 10 × human Cmax.tot; ref National Toxicology Program; cited from earlier work

| difference in Cmax.tot values utilised across studies [1] [fold] | Structure (SMILES) | DILI identification by high-throughput transcriptomics (HepaRG cells) |
| --- | --- | --- |
| 16.6 | CC(C)C(=O)Nc1ccc([N+](=O)[O-])c(C(F)(F)F)c1 [flutamide, reference compound] |  |
|  | Cc1c(C)c2c(c(C)c1O)CCC(C)(COc1ccc(CC3SC(=O)NC3=O)cc1)O2 (centres unmarked) [troglitazone, reference compound] | identified |
